{"source": "patent US5360613A", "about": "“Method of reducing blood levels of total cholesterol and low-density lipoprotein cholesterol” (Iowa State University Research Foundation, Inc., priority 1993, dated 1994)", "key": {"[1]": {"system": "plasma cholesterol and triglycerides", "test": "Hamster feeding study, plasma cholesterol and triglycerides (Example I, Table A)", "assay_type": "in vivo, hamsters", "conditions": "for % Change HDL cholesterol / % Change HDL/LDL / % Change LDL cholesterol / % Change Total cholesterol / % Change Triglycerides: HMB vs control", "experimental": "A preliminary experiment was carried out using hamsters as the test animal and Na-HMB as the therapeutic agent. The experimental details and the results obtained are described as follows.\nPregnant Female hamsters were housed and allowed to give birth. At three weeks of age, litters were subdivided into pairs within a sex. The pairs of hamsters were then assigned randomly a purified diet based on casein and cornstarch with either contained 0.1% NaCl (control) or one containing 0.1% Na-HMB (HMB). They were maintained on this diet for 6 weeks at which time they were killed by decapitation and blood collected into EDTA containing tubes. Blood was separated by centrifugation and plasma collected. The unfrozen plasma was treated with an LDL precipitating agent, centrifuged and the supernatant collected. The whole plasma and supernatant were assayed for cholesterol by an enzymatic method. Plasma cholesterol estimated total cholesterol while the supernatant represented HDL cholesterol. LDL cholesterol was estimated by the formula: LDL-Cholesterol=(Total cholesterol)-(HDL cholesterol)-(triglycerides X 0.2). Total triglycerides in plasma were estimated by an enzymatic assay."}, "[2]": {"system": "plasma cholesterol and triglycerides", "test": "Pig feeding study, plasma cholesterol and triglycerides (Example III, Table C)", "assay_type": "in vivo, pigs", "conditions": "for Plasma Triglycerides: control 107, ns; for Plasma Cholesterol: control 135", "experimental": "A further large mammal study was carried out with pigs. Pigs comprise test animals which are more similar in certain respects to humans than ruminants.\nControl: 60 g. of calcium\nThe pigs were housed in pens of two animals each and were allowed ad libitum access to food and water. Pigs were approximately 160 lbs. at the start of the experiment and were 240 lbs. at the end. All pigs were castrate males. At day 28 and day 43 of the experiment blood was collected from the anterior vena cava by venipuncture. Blood was collected into EDTA containing tubes, centrifuged and frozen until analyzed. At approximately 100 days of the experiment half of the animals (32) were slaughtered, and at 120 days the remaining 32 animals were slaughtered. At the time of slaughter the abdominal aorta was dissected out and external fat removed. The aorta was then split lengthwise and 1/2 fixed in formaldehyde for 48 hours. At this time aortas were removed, stretched over a 6 inch stick, washed in ethanol and stained with a lipid stain for 2 hours. After a 1 hour wash aortas were blotted and examined. All the aortas from a group were laid out on a white bench and arranged in order from least sever to most sever. The least sever had no dark red streaks on the aorta or around the small vertebral vessels leaving the aorta. The most sever lesions had multiple streaks in the middle of the aorta and dark red deposits in turbulent areas such as the branching of vessels from the aorta. The ordered aortas were then assigned a consecutive decimal number. The first (least severe) was assigned 0 and the most severe was assigned 3.2 Plasma cholesterol and triglycerides were measured by an enzyme-colorimetric assay (Sigma).\nstatistical analysis was accomplished by the general linear model procedure of the Statistical Analysis System (SAS). The model included the main effects of treatment and pen number. T-tests were conducted from the ANOVA standard error, to compare the HMB treatments to the control. […] It appeared that HMB can partially prevent the formation of pre-atherosclerotic lesions. No effect of KIC was noted relative to any parameter."}, "[3]": {"test": "Controlled double-blind human study, body weight, body fat and resting metabolic rate (Example IV, Table D)", "assay_type": "in vivo, humans", "experimental": "In view of the findings of the foregoing examples, a human study was carried out.\nIn a controlled double-blind study, the effects of feeding HMB on loss of urinary nitrogen, blood cholesterol and immune function in normal humans were tested. This study also measured blood components that reflect liver, kidney and tissue metabolism. In addition further measurements of nitrogen metabolism and immune function were implemented. All measurements were made in a controlled dietary situation and under blinded conditions. Normal male subjects were used who had been screened for normalcy. Ca-HMB was administered in 250 mg capsules. The subjects were instructed to take the capsules in 4 equal doses daily (with meals and at bed time). The subject ate all their meals under controlled conditions. Normal diets were used, and the amount of the diets was controlled to maintain equal and substantially constant nitrogen intake. The subjects had blood drawn before the morning meal or before they took the morning HMB dose. Each subject was studied twice: once with a placebo and once with HMB."}, "[4]": {"system": "blood cholesterol", "test": "Human dose-response study, blood cholesterol, triglycerides and glucose (Example V, Table E)", "assay_type": "in vivo, humans", "experimental": "(§1) Higher dose levels than in Example IV of Ca-HMB were tested in humans. The objective was to obtain an indication of whether higher doses could be safely administered, and also whether higher doses might provide a greater reduction in total cholesterol and LDL cholesterol.\n(§2) Normal humans were used in the study. Ca-HMB was administered in 250 mg capsules, and the subjects were instructed to take the capsules in 4 equal doses daily. No control of diet was attempted except they were instructed to eat as they normally would. On alternate days the subjects had blood drawn before the morning meal and before they took the morning HMB dose. Four subjects were studied for dose level of 05., 1, 2 and 4 grams per day.\nResults from all samples of each subject were subjected to linear regression and the slope and intercept used to calculate the % change in concentration after 8 days on treatment. The percentage changes were then subjected to ANOVA-regression to determine if there was a linear effect of dosage on the parameter. The dose-response effect (p<) is listed in the linear effect column of Table E."}, "[5]": {"test": "Human dose-response study, blood HMB (Example V)", "assay_type": "in vivo, humans", "experimental": "as §1, §2"}, "[6]": {"test": "Human dose-response study, adverse effects (Example V)", "assay_type": "in vivo, humans", "conditions": "0.5 to 4 g per day", "experimental": "as §1, §2"}, "[7]": {"system": "acetate incorporation into cholesterol", "conditions": "added to the media at very high concentrations; cited from earlier work"}, "[8]": {"conditions": "females, 0.1% Na-HMB diet, 6 weeks"}, "[9]": {"conditions": "males, 0.1% Na-HMB diet, 6 weeks"}, "[10]": {"conditions": "HMB change net of placebo-group change"}, "[11]": {"conditions": "4 grams per day, end of the one week study"}}}
{"smiles": "CC(C)(O)CC(=O)O", "note": "[HMB, β-hydroxy-β-methylbutyric acid]", "values": [{"measurement": "HDL cholesterol", "setting": "[1]; females, 0.1% Na-HMB diet, 6 weeks, control 125", "value": 132, "unit": "mg %"}, {"measurement": "Total cholesterol", "setting": "[1]; females, 0.1% Na-HMB diet, 6 weeks, control 237", "value": 228, "unit": "mg %"}, {"measurement": "Triglycerides", "setting": "[1]; females, 0.1% Na-HMB diet, 6 weeks, control 240", "value": 212, "unit": "mg %"}, {"measurement": "HDL/LDL", "setting": "[1]; females, 0.1% Na-HMB diet, 6 weeks, control .51", "value": ".41"}, {"measurement": "LDL cholesterol", "setting": "[1]; females, 0.1% Na-HMB diet, 6 weeks, estimated by formula, control 64", "value": 53, "unit": "mg %"}, {"measurement": "% Change HDL cholesterol", "setting": "[1]; [8]", "value": "+5%"}, {"measurement": "% Change HDL/LDL", "setting": "[1]; [8]", "value": -20, "unit": "%"}, {"measurement": "% Change LDL cholesterol", "setting": "[1]; [8]", "value": -17, "unit": "%"}, {"measurement": "% Change Total cholesterol", "setting": "[1]; [8]", "value": -4, "unit": "%"}, {"measurement": "% Change Triglycerides", "setting": "[1]; [8]", "value": -11, "unit": "%"}, {"measurement": "HDL cholesterol", "setting": "[1]; hamsters", "value": "a trend to increase HDL cholesterol"}, {"measurement": "LDL cholesterol", "setting": "[1]; hamsters", "value": "markedly lower LDL cholesterol"}, {"measurement": "ratio of LDL/HDL", "setting": "[1]; hamsters", "value": "positively affected"}, {"measurement": "HDL cholesterol", "setting": "[1]; males, 0.1% Na-HMB diet, 6 weeks, control 111", "value": 118, "unit": "mg %"}, {"measurement": "Total cholesterol", "setting": "[1]; males, 0.1% Na-HMB diet, 6 weeks, control 217", "value": 208, "unit": "mg %"}, {"measurement": "Triglycerides", "setting": "[1]; males, 0.1% Na-HMB diet, 6 weeks, control 232", "value": 226, "unit": "mg %"}, {"measurement": "HDL/LDL", "setting": "[1]; males, 0.1% Na-HMB diet, 6 weeks, control .53", "value": ".38"}, {"measurement": "LDL cholesterol", "setting": "[1]; males, 0.1% Na-HMB diet, 6 weeks, estimated by formula, control 59", "value": 45, "unit": "mg %"}, {"measurement": "% Change HDL cholesterol", "setting": "[1]; [9]", "value": "+5%"}, {"measurement": "% Change HDL/LDL", "setting": "[1]; [9]", "value": -28, "unit": "%"}, {"measurement": "% Change LDL cholesterol", "setting": "[1]; [9]", "value": -24, "unit": "%"}, {"measurement": "% Change Total cholesterol", "setting": "[1]; [9]", "value": -4, "unit": "%"}, {"measurement": "% Change Triglycerides", "setting": "[1]; [9]", "value": -2, "unit": "%"}, {"measurement": "Plasma Triglycerides", "setting": "[2]; dietary .01%", "value": 105, "unit": "mg %"}, {"measurement": "Plasma Cholesterol", "setting": "[2]; dietary .01%, HMB C vs. .01% p .14", "value": 120, "unit": "mg %"}, {"measurement": "Plasma Triglycerides", "setting": "[2]; dietary .05%", "value": 109, "unit": "mg %"}, {"measurement": "Plasma Cholesterol", "setting": "[2]; dietary .05%, HMB p .05, KIC ns", "value": 118, "unit": "mg %"}, {"measurement": "% Net Effect HMB, % Body fat", "setting": "[3]; [10]", "value": -9, "unit": "%"}, {"measurement": "% Net Effect HMB, Resting metabolic rate", "setting": "[3]; [10]", "value": 0, "unit": "%"}, {"measurement": "% Net Effect HMB, Weight", "setting": "[3]; [10]", "value": 1.4, "unit": "%"}, {"measurement": "Body weight", "setting": "[3]; HMB treatment", "value": "did not change"}, {"measurement": "body fat", "setting": "[3]; HMB treatment", "value": "did not change"}, {"measurement": "resting metabolic rate", "setting": "[3]; HMB treatment", "value": "did not change"}, {"measurement": "% Change Trt. % Body fat", "setting": "[3]; control to HMB treatment", "value": -12, "unit": "%"}, {"measurement": "% Change Trt. Resting metabolic rate", "setting": "[3]; control to HMB treatment", "value": 4, "unit": "%"}, {"measurement": "% Change Trt. Weight", "setting": "[3]; control to HMB treatment", "value": 1.4, "unit": "%"}, {"measurement": "% Body fat (skin fold)", "setting": "[3]; treated group on HMB, Ca HMB 1.0 grams/24 hours, pre-treatment control 12.5", "value": 11.0, "unit": "%"}, {"measurement": "resting metabolic rate", "setting": "[3]; treated group on HMB, Ca HMB 1.0 grams/24 hours, pre-treatment control 74.8", "value": 77.8, "unit": "KCal/mw"}, {"measurement": "Weight", "setting": "[3]; treated group on HMB, Ca HMB 1.0 grams/24 hours, pre-treatment control 176", "value": 179, "unit": "lbs."}, {"measurement": "cholesterol", "setting": "[4]; 2 grams daily", "value": "appeared to decrease cholesterol"}, {"measurement": "decrease of LDL cholesterol", "setting": "[4]; [11]", "value": "about 6%"}, {"measurement": "decrease of total cholesterol", "setting": "[4]; [11]", "value": "about 6%"}, {"measurement": "cholesterol", "setting": "[4]; doses lower than 2 grams daily", "value": "no effect was clearly observable"}, {"measurement": "blood cholesterol", "setting": "[4]; over the course of the week", "value": "decreased in a dose-responsive manner"}, {"measurement": "Blood HMB", "setting": "[5]; 0.5 to 4 g per day", "value": "increased in a dose-responsive manner"}, {"measurement": "increase in blood HMB", "setting": "[5]; 4 grams per day", "value": "very large increase"}, {"measurement": "adverse affects", "setting": "[6]", "value": "no adverse affects"}, {"measurement": "complaint noted with several patients", "setting": "[6]", "value": "being hungrier than normal"}, {"measurement": "inhibition of acetate incorporation", "setting": "[7]", "value": "no significant inhibition"}]}
